Four molecules from paper PMC6412891, “Synthesis and Biological Evaluation of Novel Thiazolyl-Coumarin Derivatives as Potent Histone Deacetylase Inhibitors with Antifibrotic Activity” (Molecules, 2019) can be followed below.

A word on the CC50: it is the concentration that lowers cell viability or growth by half.

Data set [1] is described as follows: Cytotoxicity assay (Alamar Blue) in cardiac fibroblasts. It is filed as cell-based, rat. The settings on record: Sprague-Dawley, rat, primary neonatal rat cardiac fibroblasts (CFs), CFs treated for 48 h. The protocol: CFs were treated for 48 h with all the new CTz derivatives in a broad concentration range (100 μM^−1 mM), and their cytotoxicity was then evaluated. In Table 3 cytotoxic concentration 50 (CC50) values for each of the synthesized compounds are shown. […] When comparing the different ZBG the series 5 is the least cytotoxic for CFs, while series 8 was the most cytotoxic.
Sprague Dawley rats were obtained from the Animal Breeding Facility of the School of Chemical and Pharmaceutical Sciences at the University of Chile. All studies followed the Guide for the Care and Use of Laboratory Animals published by the US National Institutes of Health (NIH Publication 8th, 2011), and experimental protocols were approved by the University of Chile Institutional Ethics Review Committee. CF were isolated from of 2 or 3–day–old Sprague-Dawley rats and cultured as described previously. Briefly, the neonatal rats were decapitated and their hearts were extracted under aseptic environment. Atria were removed and ventricles were cut into small pieces (~1–2 mm) for posterior colagenase II digestion. The digestion yield was separated by 10 min centrifugation at 89×g. The pellet was resuspended in 10 mL of Dulbecco’s Modified Eagle’s Medium/Nutrient F-12 (DMEM-F12) supplemented with 10% FBS and antibiotics (100 μg/mL streptomycin and 100 units/mL penicillin) and cultured in a humid atmosphere of 5% CO2 and 95% O2 at 37°C until confluence (5 days). The purity of the CFs population was assessed through the expression of several markers. CFs had positive staining against vimentin (Santa Cruz Biotechnology), while being negative against sarcomeric actin and desmin (Sigma-Aldrich). Experiments were performed on cells at passage 1. Cells were cultured in 35-mm well plates and serum starved for 24 h prior to stimulation.
To evaluate cytotoxicity, CFs were seeded in 12 microwell plates at a ratio of 2 × 10^4 cell/cm^2, cultured in DMEM–F12 medium + 10% FBS, which was subsequently replaced by DMEM–F12. After 24 h of serum starvation derivatives were applied at proper times and concentrations in accordance to experimental procedures. Cell viability assays were carried out using Alamar Blue®, a nontoxic, cell permeable non fluorescent compound that is blue in color. Viable cells reduce resazurin to resorufin, which produces very bright red fluorescence which is used as a quantitative cell viability measure. 10 μL of 0.2 mg/mL Alamar Blue® was added into each well followed by incubation for 24 h. The fluorescence of Alamar Blue® was read using microplate reader at 570 excitation and emission to 595 nm. Cell survival was expressed as percentage over the untreated cells. To evaluate CFs proliferation assay, cells were seeded as mentioned before, and after serum starvation, they were stimulated by 10% fetal bovine serum (FBS), in presence/absence of CTz derivatives for […], at concentrations according to experiment. Cell proliferation was quantified by Alamar Blue®, according to protocol mentioned before. Cell proliferation was expressed as percentage over the control FBS treated cells.
A general note: Resazurin is reduced to fluorescent resorufin, in cell work by metabolically active cells.

Data set [2] has as its system histone H4-acetylated in CFs. The data set is described as follows: Histone H4-acetylated expression in cardiac fibroblasts, western blot. It is filed as cell-based, rat. The settings on record: 5 μM for 8 h, vs. control. The protocol: For this purpose, CFs of neonatal rats were incubated in the presence/absence of the 5a, 6a, 7a and 8a derivatives, and the expression of histone H4–acetylated was measured using the western blot technique.
For the analysis of the protein expression of histone H4–acetylated (ac–H4) and total H4 histone, a number of 1 × 10^6 of CFs seeded in 60 mm plates was used, […] Subsequently, total histones were extracted by the technique of saline precipitation (high salt extraction). Briefly, CFs were scraped from the plates with 1 mL of cold PBS transferring their contents to Eppendorf tubes to be centrifuged for 60 s at 1500 rpm at 4 °C and re–suspended in 400 μL of cold buffer A (10 mM 4-(2-hydroxyethyl)-1-piperazineethanesulfonic acid-KOH (HEPES-KOH) adjusted to pH 7.9, 1.5 mM MgCl2, 10 mM KCl, 0.5 mM dithiothreitol and 0.2 mM phenylmethylsulfonyl fluoride (PMSF). The suspension is left on ice for 10 min and then placed in the vortex for 10 s. The samples were centrifuged for 60 s, subsequently discarding the supernatant fraction. The obtained pellet was re-suspended in 60 μL of cold C buffer (20 mM HEPES-KOH adjusted to pH 7.9, 25% glycerol, 420 mM NaCl, 1.5 mM MgCl2, 0.2 mM EDTA, dithiothreitol 0.5 mM and 0.2 mM PMSF) and placed on ice for 20 min for saline precipitation. Cell debris is removed by centrifugation for 120 s at 1500 rpm at 4 °C and the supernatant fraction, which contains the DNA binding proteins, is stored at minus 20 °C. For the analysis of α–SMA and procollagen type I expression levels, 3×10^5 CFs seeded in 35 mm plates were used, which were incubated together with inhibitor compounds at a 5 μM, in the absence/presence of TGF–β1 (5 ng/mL) for 48 h. To obtain the total proteins, the CFs were washed three times with cold PBS, then scraped and lysed with 50 μL of radio inmuno-precipitation assay (RIPA) lysis buffer (10 mM Tris–HCl pH 7.2, 5 mM EDTA, 150 mM NaCl, Triton X–100 1%, sodium dodecyl sulfate (SDS) 0.1%, deoxycholate 1%, leupeptin 2 μg/mL, aprotinin 10mM, PMSF 1mM and Na3VO4 100μM). The solution was centrifuged for 15 min at 10,000 rpm and at 4 °C. The supernatant fraction containing the total proteins was stored at minus 20 °C. The concentration of proteins obtained was determined by spectrophotometry at 570 nm, using the Bradford method (Bio-Rad, Hercules, CA, USA).
CFs proteins (25 μg), were subjected to 10% sodium dodecyl sulfate-polyacrylamide gel electrophoresis and finally transferred onto a nitrocellulose membrane (Millipore, Billerica, MA, USA). The membrane was washed twice with tris–buffered saline solution containing 0.1% Tween 20 (TBST). […]
Figure 3 CTz non–substituted derivatives inhibit histone H4 acetylation. […] Nuclear extracts were isolated and histone H4 acetylation expression levels were measured by western blot. […]
(In western blotting, separated proteins are transferred to a membrane and probed.)

In data set [1], `O=C(CCCCC1CCSS1)Nc1nc(-c2cc3ccccc3oc2=O)cs1` (centres unmarked) [Compound 5a, 5-[1,2]-Dithiolan-3-yl-N-[4-(2-oxo-2H-chromen-3-yl)-thiazol-2-yl]-pentanamide] displayed a 50% cytotoxic concentration (CC50) at 48 h of 201 ± 20.3 µM. In addition, the “histone H4-acetylated expression” value in data set [2] is given as “increase in a statistically significant manner”.
In the same order, the values of `O=C(Nc1nc(-c2cc3ccccc3oc2=O)cs1)c1ccc(O)c(O)c1` [Compound 6a] are 140 ± 11.7 µM and “increase in a statistically significant manner”.
In data set [1], `O=C(O)CCCCC(=O)Nc1nc(-c2cc3ccccc3oc2=O)cs1` [Compound 7a] gave a CC50 at 48 h of 111 ± 4.4 µM. For the same molecule, in data set [2], the “histone H4-acetylated expression” value is on record as “had no effect”.
With `O=C(CCCCC(=O)Nc1nc(-c2cc3ccccc3oc2=O)cs1)NO` [Compound 8a, 5-[4-(2-Oxo-2H-chromen-3-yl)-thiazol-2-yl-carbamoyl]-N-hydroxypentanamide], in data set [1], the CC50 at 48 h came to 90.5 ± 5.1 µM. In addition, the “histone H4-acetylated expression” value in data set [2] is recorded as “increase in a statistically significant manner”.
